Assay results taken from patent publication US11260050B2, “Combination of cotinine plus antioxidant for treatment-resistant depression and correction of astrocytes functional deficit induced by depression and other neuropathological” (UNIVERSIDAD SAN SEBASTIAN, priority 2017, dated 2022).

How the values were obtained:
[1] = system: mice subjected to fear conditioning; test: Elevated plus maze after fear conditioning (Example 1, Experiment 3); format: in vivo, C57BL/6 mice; conditions: FC mice, IN post-treatment; Veh 68.14±5.573, N=5
Description: Mice were treated via IN 2 hours after fear conditioning and continuously until euthanasia.
Mice (n=5-6/condition) received daily treatments with 1. PBS (phosphate buffer saline, pH 7.4) via intranasal (2×12 μl/nostril), 2. Cotinine dissolved in PBS via intranasal (Cot IN, 10 mg/ml, 2×12 μl/nostril); 3. Cotinine+krill oil both dissolved in PBS via intranasal (Cot IN, 10 mg/ml+KO, 48 mg/ml, 2×12 μl/nostril).
Contextual FC was performed as described. The conditioning chamber used is surrounded by a sound-attenuating box with a camera connected to freeze frame software (MED Associates Inc.), also equipped to provide a background white noise (72 dB). The conditioning chamber (33 cm×20 cm×22 cm) contains in one side a speaker and in the opposite slide has a 24V light. The chamber has a 36-bar insulated shock grid floor. Mice were placed in the conditioning chamber for 2 min before the onset of a discrete tone (a sound that will last 30 seconds (sec) at 2,800 Hz and 85 dB). In the last two seconds of this tone, mice received a foot shock of 1 mA and kept in the conditioning chamber for 2 min and then returned to their cages. Between trials, the chamber was sanitized with 70% ethanol and dried. Freezing behavior that is defined as the absence of all movement except the one needed for breathing was assessed using the FreezeView Software (MED Associates Inc.). […]

restrained mice [2] = test: Open field test after chronic restraint stress (Example 2); format: in vivo, C57BL/6 male mice; conditions: IN cotinine 24 μl of 10 mg/ml daily, RS+PBS 61±19 m
Description: Mice between 2-3 months of age after one week of acclimatization were randomly divided into two groups. Stressed mice were subjected to restraint stress. Control (non-restrained) mice were allowed to move freely during this period. After the stress exposure period, mice were divided into three experimental groups: 1) Non-restrained mice treated with vehicle (PBS, pH 7.4) serving as unstressed controls (n=8); 2) Restrained mice (RS) treated with vehicle (n=8); 3), RS mice treated with 24 μl of a cotinine solution (10 mg/ml in PBS, pH 7.4) via intranasal route of administration (n=6). Treatments were administered daily until euthanasia. After two weeks of treatments mice were behaviorally tested and euthanized (FIG. 10) Intranasal delivery was performed as previously described (Hanson and Frey, 2007). Mice at 2-3 months of age were hand-restrained, positioned in a supine position, and administered two 12 μl drops of cotinine solution (10 mg/ml in PBS), or PBS alone, into both nares. […] Mice were individually placed in an uncovered square arena (40 cm×40 cm×35 cm), allowed to freely explore for 30 minutes (min) while monitored with a video tracking software (ANY-Maze®, Stoelting Co., Illinois, USA) under moderate lighting. Several parameters including total distance traveled, speed, and time spent in the center and peripheral zones (20 cm×20 cm) were measured to assess locomotor activity.

restrained mice [3] = test: Novel object recognition after chronic restraint stress (Example 2); format: in vivo, C57BL/6 male mice; conditions: stressed mice, IN cotinine vs vehicle
Description: Mice between 2-3 months of age after one week of acclimatization were randomly divided into two groups. Stressed mice were subjected to restraint stress. Control (non-restrained) mice were allowed to move freely during this period. After the stress exposure period, mice were divided into three experimental groups: 1) Non-restrained mice treated with vehicle (PBS, pH 7.4) serving as unstressed controls (n=8); 2) Restrained mice (RS) treated with vehicle (n=8); 3), RS mice treated with 24 μl of a cotinine solution (10 mg/ml in PBS, pH 7.4) via intranasal route of administration (n=6). Treatments were administered daily until euthanasia. After two weeks of treatments mice were behaviorally tested and euthanized (FIG. 10)
Intranasal delivery was performed as previously described (Hanson and Frey, 2007). Mice at 2-3 months of age were hand-restrained, positioned in a supine position, and administered two 12 μl drops of cotinine solution (10 mg/ml in PBS), or PBS alone, into both nares. Mice were given an extra 12 μl treatment drop if the mouse expelled out the solution. Mice were kept in the supine posture for 5 seconds after delivery to facilitate the delivery. […]
The NOR test starts with a habituation step that consists in putting each mouse to freely explore an open and empty testing arena (40 cm×40 cm×35 cm) for 10 min. […] The time exploring the objects was recorded during 5 min in both steps. […]

SMILES: CN1C(=O)CC[C@H]1c1cccnc1 [Cotinine, (5S)-1-methyl-5-(3-pyridyl) pyrrolidin-2-one]
- time spent in the open arms (EPM) [1]: increase in the time spent in the open arms but the difference did not reached significance
- distance traveled in the OF test (restrained mice [2]): 49±13 m
- exploration index for the new object (NOR) (restrained mice [3]): increase in the exploration index when compared to vehicle-treated stressed mice but the difference did not reach statistical significance
- number of entries to the novel object area (NOR) (restrained mice [3]; p<0.05): significantly higher number of entries to the novel object area
